This passage reports GFP-LC3 puncta formation results from patent US9005677B2, “Autophagy enhancer for treatment of neurodegenerative diseases” (Macau University of Science and Technology, priority 2013, dated 2015).

Structures are written as SMILES.

In the experiment the test system is GFP-LC3 puncta formation in PC12 cells. In words: Quantification of autophagy GFP-LC3 puncta. Type of experiment: cell-based, rat. The following applies: fluorescent microscopy. On the procedure:
Quantification of autophagy GFP-LC3 Puncta. GFP-LC3 puncta formation was quantified as described previously. In brief, cells grown on coverslips in a 6-well plate were fixed in 4% paraformaldehyde for 20 minutes at room temperature and then rinsed with PBS. Slides were mounted with FluorSave™ mounting media (Calbiochem, San Diego, Calif.) and examined by fluorescence microscopy. The number of GFP-positive cells with GFP-LC3 puncta formation was examined under the Nikon ECLIPSE 80i microscope. Representative images were captured with CCD digital camera Spot RT3™ (Diagnostic Instruments, Inc., Melville, N.Y.). To quantify autophagy, the percentage of cells with punctate GFP-LC3 fluorescence was calculated by counting the number of the cells with punctate GFP-LC3 fluorescence in GFP-positive cells. A minimum of 150 cells from 3 randomly selected fields was scored.

With `CC1(C)CCC2(C(=O)O)C(O)CC3(C)C(=CCC4C5(C)CC(O)C(O)C(C)(CO)C5CCC43C)C2C1` (centres unmarked) [polygalacic acid], the GFP-LC3 puncta formation entry is given as “no autophagy activity”. In the case of `CC1(C)CC[C@]2(C(=O)O)CCC3=C([C@@H](CCl)C[C@@H]4[C@@]5(C)C[C@H](O)[C@H](O)[C@@](C)(C(=O)O)[C@@H]5CC[C@@]34C)[C@@H]2C1` [senegenin] it was “no autophagy activity”.
